How the values were obtained:
[1] = metformin on its own, in the diabetic; cited from earlier work
[2] = Phase III trial of empagliflozin as add-on to existing therapy for 52 weeks in patients with T2DM and renal impairment: eGFR (MDRD) over time; format: in vivo, human; conditions: for End-of treatment eGFR Mean / End-of treatment eGFR Mean change from baseline / eGFR at week 52 (in words): week 52
Excerpt: (§1) For the purpose of the present invention, the estimated glomerular filtration rate (eGFR) is derived from the serum creatinine (SCr) value based on the MDRD formula below: eGFR (mL/min/1.73m2)=175×[SCr (μmol/L)/88.4]-1.154×[age]-0.203×[0.742 if patient is female]×[1.212 if patient is of African origin]
A Phase III trial investigated the efficacy and safety of empagliflozin (EMPA) as add-on to existing therapy for 52 weeks in patients with T2DM and RI. Patients with mild RI (eGFR [MDRD equation]≥60 to<90 mL/min/1.73 m^2) received EMPA 10 or 25 mg qd or placebo (PBO). Patients with moderate RI (eGFR≥30 to<60 mL/min/1.73 m^2) received EMPA 25 mg qd or PBO. Patients with severe RI (eGFR[…] to<30 mL/min/1.73 m^2) received EMPA 25 mg qd or PBO.

[3] = Phase III trial of empagliflozin once daily over 12 weeks in hypertensive patients with T2DM: eGFR (MDRD) over time; format: in vivo, human
Protocol: as §1
A Phase III trial investigated the efficacy and safety of empagliflozin (EMPA) administered orally, once daily over 12 weeks in hypertensive patients with T2DM (EMPA 10 or 25 mg, placebo (PBO)). Patients with a systolic blood pressure (SBP) of 130 to 159 mmHg and a diastolic blood pressure (DSP) of 80 to 99 mmHg were included in the trial.

[4] = Phase IIb trial of empagliflozin once daily over 78 weeks in patients with T2DM receiving basal insulin: eGFR (MDRD) over time; format: in vivo, human
Protocol: as §1
A Phase IIb trial investigated the efficacy and safety of empagliflozin (EMPA 10 or 25 mg, placebo (PBO)) administered orally, once daily over 78 weeks in patients with T2DM receiving treatment with basal insulin (glargine, detemir, or NPH insulin only).

[5] = 52 week renal impairment study: urine albumin/creatinine ratio (UACR) by baseline UACR category; format: in vivo, human; conditions: for Frequency of patients, last value on-treatment Macroalbuminuria, % / Frequency of patients, last value on-treatment Microalbuminuria, % / Frequency of patients, last value on-treatment Normal, % / Urine albumin-to-creatinine ratio, change from baseline, Mean: week 52; for mean urine albumin/creatinine ratio values (in words): patients with microalbuminuria at baseline
Protocol: In a dedicated 52 week renal impairment study, patients were categorised based on their urine albumin/creatinine ratio (UACR) values at baseline, and 3 categories of patients were distinguished: patients with normal urine albumin/creatinine ratio values (<30 mg/g), patients with microalbuminuria (30 to<300 mg/g) and patients with macroalbuminurea (≥300 mg/g).
Categories for urine albumin-to-creatinine ratio: normal:<30 mg/g, microalbuminuria 30 to<300 mg/g, macroalbuminuria:≥300 mg/g

[6] = mild renal impairment, Empa 10 mg qd, 3-week follow up visit
[7] = mild renal impairment, Empa 10 mg qd
[8] = mild renal impairment, Empa 25 mg qd, 3-week follow up visit
[9] = mild renal impairment, Empa 25 mg qd
[10] = moderate renal impairment, Empa 25 mg qd, 3-week follow-up visit
[11] = moderate renal impairment, Empa 25 mg qd
[12] = severe renal impairment, Empa 25 mg qd, 3-week follow-up visit
[13] = severe renal impairment, Empa 25 mg qd
[14] = Empa 10 mg once daily, 2-week follow up visit
[15] = Empa 25 mg once daily, 2-week follow up visit
[16] = T2DM on basal insulin, Empa 10 mg once daily, 4-week follow up visit
[17] = T2DM on basal insulin, Empa 10 mg once daily
[18] = T2DM on basal insulin, Empa 25 mg once daily, 4-week follow up visit
[19] = T2DM on basal insulin, Empa 25 mg once daily
[20] = Empa 10 mg, baseline Macroalbuminuria
[21] = Empa 10 mg, baseline Microalbuminuria
[22] = Empa 10 mg, baseline UACR Normal
[23] = Empa 25 mg, baseline Macroalbuminuria
[24] = Empa 25 mg, baseline Microalbuminuria
[25] = Empa 25 mg, baseline UACR Normal

SMILES: CN(C)C(=N)N=C(N)N [metformin]
- average improvement in the HbA1c value [1]: 1.0-1.5%

SMILES: OC[C@H]1O[C@@H](c2ccc(Cl)c(Cc3ccc(O[C@H]4CCOC4)cc3)c2)[C@H](O)[C@@H](O)[C@@H]1O [Empa, 1-chloro-4-(β-D-glucopyranos-1-yl)-244-((S)-tetrahydrofuran-3-yloxy)-benzylFbenzene]
- Follow-up eGFR Mean [2, 6]: 69.84 mL/min/1.73 m^2
- Follow-up eGFR Mean change from baseline [2, 6]: 2.06 mL/min/1.73 m^2
- Baseline eGFR Mean [2, 7]: 68.42 mL/min/1.73 m^2
- End-of treatment eGFR Mean [2, 7]: 68.07 mL/min/1.73 m^2
- End-of treatment eGFR Mean change from baseline [2, 7]: −0.76 mL/min/1.73 m^2
- Follow-up eGFR Mean [2, 8]: 73.38 mL/min/1.73 m^2
- Follow-up eGFR Mean change from baseline [2, 8]: 1.28 mL/min/1.73 m^2
- Baseline eGFR Mean [2, 9]: 72.01 mL/min/1.73 m^2
- End-of treatment eGFR Mean [2, 9]: 66.25 mL/min/1.73 m^2
- End-of treatment eGFR Mean change from baseline [2, 9]: −5.67 mL/min/1.73 m^2
- mean eGFR at follow up (in words) ([2]; mild renal impairment, empagliflozin 10 and 25 mg, 3-week follow up visit): increased to a value slightly above baseline
- eGFR at week 52 (in words) ([2]; mild renal impairment, empagliflozin 10 and 25 mg): small decrease in eGFR
- Follow-up eGFR Mean [2, 10]: 45.39 mL/min/1.73 m^2
- Follow-up eGFR Mean change from baseline [2, 10]: 1.48 mL/min/1.73 m^2
- Baseline eGFR Mean [2, 11]: 43.84 mL/min/1.73 m^2
- End-of treatment eGFR Mean [2, 11]: 40.58 mL/min/1.73 m^2
- End-of treatment eGFR Mean change from baseline [2, 11]: −3.55 mL/min/1.73 m^2
- mean eGFR at follow-up (in words) ([2]; moderate renal impairment, empagliflozin 25 mg, 3-week follow-up visit): increased to a value slightly above baseline
- eGFR at week 52 (in words) ([2]; moderate renal impairment, empagliflozin 25 mg): small decrease in eGFR
- Follow-up eGFR Mean [2, 12]: 23.63 mL/min/1.73 m^2
- Follow-up eGFR Mean change from baseline [2, 12]: −0.59 mL/min/1.73 m^2
- Baseline eGFR Mean [2, 13]: 24.22 mL/min/1.73 m^2
- End-of treatment eGFR Mean [2, 13]: 20.23 mL/min/1.73 m^2
- End-of treatment eGFR Mean change from baseline [2, 13]: −3.98 mL/min/1.73 m^2
- mean eGFR at follow-up (in words) ([2]; severe renal impairment, empagliflozin 25 mg, 3-week follow-up visit): increased to a value slightly below baseline
- eGFR at week 52 (in words) ([2]; severe renal impairment, empagliflozin 25 mg): small decrease in eGFR
- Follow-up eGFR Mean [3, 14]: 86.25 mL/min/1.73 m^2
- Follow-up eGFR Mean change from baseline [3, 14]: 3.06 mL/min/1.73 m^2
- Follow-up eGFR Mean change from last value on treatment [3, 14]: 3.32 mL/min/1.73 m^2
- Baseline eGFR Mean ([3]; Empa 10 mg once daily): 83.01 mL/min/1.73 m^2
- Last value on treatment eGFR Mean ([3]; Empa 10 mg once daily, week 12): 82.70 mL/min/1.73 m^2
- Last value on treatment eGFR Mean change from baseline ([3]; Empa 10 mg once daily, week 12): −0.20 mL/min/1.73 m^2
- Follow-up eGFR Mean [3, 15]: 86.60 mL/min/1.73 m^2
- Follow-up eGFR Mean change from baseline [3, 15]: 2.75 mL/min/1.73 m^2
- Follow-up eGFR Mean change from last value on treatment [3, 15]: 5.54 mL/min/1.73 m^2
- Baseline eGFR Mean ([3]; Empa 25 mg once daily): 83.97 mL/min/1.73 m^2
- Last value on treatment eGFR Mean ([3]; Empa 25 mg once daily, week 12): 81.24 mL/min/1.73 m^2
- Last value on treatment eGFR Mean change from baseline ([3]; Empa 25 mg once daily, week 12): −2.60 mL/min/1.73 m^2
- mean eGFR at follow up (in words) ([3]; empagliflozin 10 and 25 mg, 2-week follow up visit): increased to a value slightly above baseline
- eGFR at week 12 (in words) ([3]; empagliflozin 10 and 25 mg, week 12): small decrease in eGFR
- eGFR at follow-up Mean [4, 16]: 83.74
- eGFR at follow-up Mean change from baseline [4, 16]: −1.88
- Baseline eGFR Mean [4, 17]: 85.01
- Week 18 eGFR Mean [4, 17]: 80.37
- Week 18 eGFR Mean change from baseline [4, 17]: −4.98
- Week 54 eGFR Mean [4, 17]: 82.55
- Week 54 eGFR Mean change from baseline [4, 17]: −5.68
- Week 78 eGFR Mean [4, 17]: 81.86
- Week 78 eGFR Mean change from baseline [4, 17]: −5.52
- eGFR at follow-up Mean [4, 18]: 81.35
- eGFR at follow-up Mean change from baseline [4, 18]: −0.79
- Baseline eGFR Mean [4, 19]: 82.88
- Week 18 eGFR Mean [4, 19]: 79.11
- Week 18 eGFR Mean change from baseline [4, 19]: −3.48
- Week 54 eGFR Mean [4, 19]: 77.12
- Week 54 eGFR Mean change from baseline [4, 19]: −4.76
- Week 78 eGFR Mean [4, 19]: 77.21
- Week 78 eGFR Mean change from baseline [4, 19]: −5.64
- mean eGFR at follow up (in words) ([4]; T2DM on basal insulin, empagliflozin 10 and 25 mg, 4-week follow up visit): increased to a value slightly below baseline
- eGFR on treatment (in words) ([4]; empagliflozin 10 and 25 mg, 78 weeks): small decrease in eGFR
- Frequency of patients, last value on-treatment Macroalbuminuria, % [5, 20]: (33.3) %
- Frequency of patients, last value on-treatment Microalbuminuria, % [5, 20]: (55.6) %
- Frequency of patients, last value on-treatment Normal, % [5, 20]: (11.1) %
- Frequency of patients, last value on-treatment Macroalbuminuria, % [5, 21]: (11.1) %
- Frequency of patients, last value on-treatment Microalbuminuria, % [5, 21]: (61.1) %
- Frequency of patients, last value on-treatment Normal, % [5, 21]: (27.8) %
- Frequency of patients, last value on-treatment Microalbuminuria, % [5, 22]: (10.6) %
- Frequency of patients, last value on-treatment Normal, % [5, 22]: (89.4) %
- Frequency of patients, last value on-treatment Macroalbuminuria, % [5, 23]: (67.1) %
- Frequency of patients, last value on-treatment Microalbuminuria, % [5, 23]: (30.1) %
- Frequency of patients, last value on-treatment Normal, % [5, 23]: (2.7) %
- Frequency of patients, last value on-treatment Macroalbuminuria, % [5, 24]: (3.8) %
- Frequency of patients, last value on-treatment Microalbuminuria, % [5, 24]: (72.2) %
- Frequency of patients, last value on-treatment Normal, % [5, 24]: (24.1) %
- Frequency of patients, last value on-treatment Microalbuminuria, % [5, 25]: (10.6) %
- Frequency of patients, last value on-treatment Normal, % [5, 25]: (89.4) %
- Urine albumin-to-creatinine ratio, change from baseline, Mean ([5]; Empagliflozin 10 mg, patients Normal (<30 mg/g) at baseline): 4.0 mg/g
- Urine albumin-to-creatinine ratio, change from baseline, Mean ([5]; Empagliflozin 10 mg, patients with Macroalbuminuria at baseline): -716.3 mg/g
- Urine albumin-to-creatinine ratio, change from baseline, Mean ([5]; Empagliflozin 10 mg, patients with Microalbuminuria at baseline): 7.4 mg/g
- Urine albumin-to-creatinine ratio, change from baseline, Mean ([5]; Empagliflozin 25 mg, patients Normal (<30 mg/g) at baseline): 6.0 mg/g
- Urine albumin-to-creatinine ratio, change from baseline, Mean ([5]; Empagliflozin 25 mg, patients with Macroalbuminuria at baseline): -799.9 mg/g
- Urine albumin-to-creatinine ratio, change from baseline, Mean ([5]; Empagliflozin 25 mg, patients with Microalbuminuria at baseline): -39.4 mg/g
- Shifts between UACR categories from macro- or microalbuminuria towards normal and from macro- to microalbuminuria, versus placebo (in words) ([5]; baseline to end of treatment, empagliflozin treatment groups): higher frequency
- mean urine albumin/creatinine ratio (in words) ([5]; patients with macroalbuminuria at baseline, empagliflozin groups): decrease in mean urine albumin/creatinine ratio
- mean urine albumin/creatinine ratio values (in words) ([5]; empagliflozin 10 mg): remained nearly unchanged
- mean urine albumin/creatinine ratio values (in words) ([5]; empagliflozin 25 mg): decreased

Source: patent publication US11666590B2, “Pharmaceutical composition, methods for treating and uses thereof” (Boehringer Ingelheim International GmbH, priority 2013, dated 2023)
